Test results reported in ChEMBL document CHEMBL4680188 (Eur J Med Chem, 2020).
Calls of active or inactive are those of the source. The calls are words filed in the database; no cut-off is given here.

Legend:
[1] = target: T1, Melatonin receptor type 1B (Homo sapiens, UniProt P49286); experiment: Agonist activity at human MT2 expressed in CHO cell membrane incubated for 1 hr by [35S]GTPgammaS binding assay; format: functional, cell membranes
T1 sequence (P49286 whole entry): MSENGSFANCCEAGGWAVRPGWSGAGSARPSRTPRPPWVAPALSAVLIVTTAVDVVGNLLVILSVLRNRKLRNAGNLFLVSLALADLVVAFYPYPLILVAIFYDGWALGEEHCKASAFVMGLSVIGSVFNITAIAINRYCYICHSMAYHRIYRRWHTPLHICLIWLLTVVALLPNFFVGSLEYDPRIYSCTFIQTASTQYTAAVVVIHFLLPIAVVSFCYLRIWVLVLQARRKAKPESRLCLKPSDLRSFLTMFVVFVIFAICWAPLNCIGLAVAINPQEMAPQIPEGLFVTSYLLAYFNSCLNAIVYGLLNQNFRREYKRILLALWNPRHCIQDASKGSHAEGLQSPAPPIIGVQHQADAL

[2] = target: T2, Melatonin receptor type 1A (Homo sapiens, UniProt P48039); experiment: Displacement of 2-[125l]-lodomelatonin from human MT1 expressed in CHO cells incubated for 120 mins by radioligand binding assay; format: cell-based
T2 sequence (P48039 whole entry): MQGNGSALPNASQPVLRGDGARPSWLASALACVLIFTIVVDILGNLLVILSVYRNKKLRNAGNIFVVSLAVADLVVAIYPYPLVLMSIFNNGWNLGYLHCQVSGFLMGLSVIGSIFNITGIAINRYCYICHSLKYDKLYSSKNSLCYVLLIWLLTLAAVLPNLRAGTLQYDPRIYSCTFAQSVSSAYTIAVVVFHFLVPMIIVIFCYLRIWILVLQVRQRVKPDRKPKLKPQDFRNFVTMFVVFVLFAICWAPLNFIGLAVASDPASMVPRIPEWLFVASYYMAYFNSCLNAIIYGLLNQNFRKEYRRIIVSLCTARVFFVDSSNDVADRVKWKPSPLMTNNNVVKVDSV

[3] = target: T2, Melatonin receptor type 1A; experiment: Agonist activity at human MT1 expressed in CHO cell membrane incubated for 1 hr by [35S]GTPgammaS binding assay; format: functional, cell membranes
[4] = target: T3, 5-hydroxytryptamine receptor 2C (Homo sapiens) (UniProt P28335); experiment: Binding affinity to human 5HT2C expressed in CHO cells; format: cell-based
T3 sequence (whole entry): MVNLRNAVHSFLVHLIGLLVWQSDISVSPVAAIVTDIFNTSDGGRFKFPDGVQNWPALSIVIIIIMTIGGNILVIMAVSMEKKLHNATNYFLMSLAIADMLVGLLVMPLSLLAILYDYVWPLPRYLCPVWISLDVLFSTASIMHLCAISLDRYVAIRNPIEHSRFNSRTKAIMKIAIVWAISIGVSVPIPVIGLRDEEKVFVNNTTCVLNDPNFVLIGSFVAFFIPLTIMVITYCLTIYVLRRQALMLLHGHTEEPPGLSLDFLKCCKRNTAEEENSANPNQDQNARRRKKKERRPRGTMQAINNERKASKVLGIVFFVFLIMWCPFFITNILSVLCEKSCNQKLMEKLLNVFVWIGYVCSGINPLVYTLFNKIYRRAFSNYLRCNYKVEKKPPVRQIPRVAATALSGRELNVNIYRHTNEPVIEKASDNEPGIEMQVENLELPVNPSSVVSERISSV

[5] = target: T1, Melatonin receptor type 1B; experiment: Displacement of 2-[125l]-lodomelatonin from human MT2 expressed in CHO cells incubated for 120 mins by radioligand binding assay; format: cell-based
[6] = Permeability in human Caco-2 cells; format: ADME, cell-based
[7] = Oral bioavailability in human; format: ADME, organism-based; conditions: in vivo
[8] = Oral bioavailability in rat; format: ADME, organism-based; conditions: in vivo

SMILES: COc1ccc2cnnc(CCNC(C)=O)c2c1
- EC50 [1]: 428 nM
- Ki [2]: 2110 nM
- EC50 [3]: > 10000 nM
- Activity [4]: inactive
- Ki [5]: 799 nM
- permeability [6]: 2%

SMILES: COc1ccc2ncnc(CCNC(C)=O)c2c1
- EC50 [1]: 835 nM
- bioavailability [7]: 97%
- Ki [2]: 230 nM
- EC50 [3]: 2600 nM
- Activity [4]: inactive
- Ki [5]: 115 nM
- permeability [6]: 100%
- bioavailability [8]: 92%

SMILES: COc1ccc2cnnc(CCNC(=O)C3CC3)c2c1
- EC50 [1]: 1250 nM
- Ki [2]: 3020 nM
- EC50 [3]: > 10000 nM
- Activity [4]: inactive
- Ki [5]: 1370 nM

SMILES: CCCC(=O)NCCc1nncc2ccc(OC)cc12
- EC50 [1]: 89 nM
- bioavailability [7]: 36%
- Ki [2]: 1140 nM
- EC50 [3]: > 10000 nM
- Activity [4]: inactive
- Ki [5]: 108 nM
- permeability [6]: 100%
- bioavailability [8]: 33%

SMILES: CCCC(=O)NCCc1ncnc2ccc(OC)cc12
- EC50 [1]: 219 nM
- bioavailability [7]: 36%
- Ki [2]: 320 nM
- EC50 [3]: 652 nM
- Activity [4]: inactive
- Ki [5]: 41 nM
- bioavailability [8]: 69%

SMILES: COc1ccc2ncnc(N3CCN(C(=O)C4CC4)CC3)c2c1
- Ki [2]: > 10000 nM
- Activity [4]: inactive
- Ki [5]: 3300 nM

SMILES: CCNC(=O)N1CCN(c2ncnc3ccc(OC)cc23)CC1
- Ki [2]: > 10000 nM
- Activity [4]: inactive
- Ki [5]: 2800 nM

SMILES: COc1ccc2cccc(CCNC(C)=O)c2c1 [AGOMELATINE]
- bioavailability [7]: 11%
- permeability [6]: 100%
- bioavailability [8]: 13%

SMILES: CCC(=O)NCCc1nncc2ccc(OC)cc12
- EC50 [1]: 327 nM
- bioavailability [7]: 46%
- Ki [2]: 1470 nM
- EC50 [3]: > 10000 nM
- Activity [4]: inactive
- Ki [5]: 414 nM
- permeability [6]: 100%
- bioavailability [8]: 54%

SMILES: COc1ccc2ncnc(CCNC(=O)C3CC3)c2c1
- Ki [2]: 549 nM
- Activity [4]: inactive
- Ki [5]: 398 nM

SMILES: COc1cccc(-c2nc(CCNC(C)=O)c3cc(OC)ccc3n2)c1
- EC50 [1]: 543 nM
- Ki [2]: 500 nM
- EC50 [3]: 321 nM
- Activity [4]: inactive
- Ki [5]: 46 nM

SMILES: COc1ccc2ncnc(NCCNC(C)=O)c2c1
- Ki [2]: > 10000 nM
- Activity [4]: inactive
- Ki [5]: > 10000 nM

SMILES: CCC(=O)NCCc1ncnc2ccc(OC)cc12
- EC50 [1]: 238 nM
- Ki [2]: 210 nM
- EC50 [3]: 432 nM
- Activity [4]: inactive
- Ki [5]: 41.1 nM

SMILES: COc1ccc2nc(-c3ccccc3)nc(CCNC(C)=O)c2c1
- EC50 [1]: 237 nM
- bioavailability [7]: 7%
- Ki [2]: 896 nM
- EC50 [3]: > 10000 nM
- Activity [4]: inactive
- Ki [5]: 15.6 nM
- permeability [6]: 100%
- bioavailability [8]: 2%
